Experimental data taken from ChEMBL document CHEMBL5370538, “Discovery of novel 6-p-tolyl-3-(3,4,5-trimethoxybenzyl)-7H-[1,2,4]triazolo[3,4-b][1,3,4]thiadiazine derivative as a potent tubulin inhibitor with promising in vivo antitumor activity” (Eur J Med Chem, 2023).
pIC50: −log10 of the molar value. The source made the active and inactive calls. The rule behind the calls is not given here.

Columns and labels:
HeLa [1] = test: Induction of apoptosis in human HeLa cells assessed as early apoptotic cells at 0.12 uM incubated for 24 hrs Annexin V-FITC/PI staining based flow cytometry analysis (Rvb= 1.85 %); type: functional
[2] = AUC (0-t) in Sprague-Dawley rat at 10 mg/kg,po measured upto 24 hrs by LC-MS/MS analysis; type: ADME, organism-based; set-up: dose 10 mg/kg, time < 24 hrs, route po; conditions: in vivo
A549 [3] = test: Antitumor activity against human A549 cells xenografted in Balb/c mouse assessed as inhibition of tumor weight at 60 mg/kg,ip administrated for 7 days; type: functional, organism-based; conditions: time 7.0 day
[4] = Tmax in Sprague-Dawley rat at 2 mg/kg,iv measured upto 24 hrs by LC-MS/MS analysis; type: ADME, organism-based; conditions: in vivo
[5] = Half life in Sprague-Dawley rat at 2 mg/kg,iv measured upto 24 hrs by LC-MS/MS analysis; type: ADME, organism-based; conditions: in vivo
[6] = Cmax in Sprague-Dawley rat at 10 mg/kg,po measured upto 24 hrs by LC-MS/MS analysis; type: ADME, organism-based; set-up: time < 24 hrs, dose 10 mg/kg, route po; conditions: in vivo
[7] = Toxicity in Balb/c mouse xenografted with human A549 cells assessed as change in body weight at 60 mg/kg,ip administrated for 7 days; type: organism-based; conditions: in vivo, 168 h, time 7 day
HT-29 = test: Antiproliferative activity against human HT-29 cells assessed as cell growth inhibition incubated for 48 hrs by MTT assay; type: functional, cell-based; conditions: HT-29, 48 h
[8] = MRT (0-infinity) in Sprague-Dawley rat at 10 mg/kg,po measured upto 24 hrs by LC-MS/MS analysis; type: ADME, organism-based; conditions: in vivo
HeLa [9] = test: Induction of apoptosis in human HeLa cells assessed as late apoptotic cells at 0.06 uM incubated for 24 hrs Annexin V-FITC/PI staining based flow cytometry analysis (Rvb= 2.13 %); type: functional
[10] = AUC (0-t) in Sprague-Dawley rat at 2 mg/kg,iv measured upto 24 hrs by LC-MS/MS analysis; type: ADME, organism-based; set-up: dose 2 mg/kg, time < 24 hrs, route iv; conditions: in vivo
[11] = Volume of distribution at steady state in Sprague-Dawley rat at 2 mg/kg,iv measured upto 24 hrs by LC-MS/MS analysis; type: ADME, organism-based; conditions: in vivo
[12] = MRT (0-t) in Sprague-Dawley rat at 10 mg/kg,po measured upto 24 hrs by LC-MS/MS analysis; type: ADME, organism-based; conditions: in vivo
HeLa [13] = test: Induction of apoptosis in human HeLa cells assessed as late apoptotic cells at 0.03 uM incubated for 24 hrs Annexin V-FITC/PI staining based flow cytometry analysis (Rvb= 2.13 %); type: functional
[14] = MRT (0-infinity) in Sprague-Dawley rat at 2 mg/kg,iv measured upto 24 hrs by LC-MS/MS analysis; type: ADME, organism-based; conditions: in vivo
[15] = AUC (0-infinity) in Sprague-Dawley rat at 10 mg/kg,po measured upto 24 hrs by LC-MS/MS analysis; type: ADME, organism-based; set-up: time < 24 hrs, dose 10 mg/kg, route po; conditions: in vivo
HUVEC = test: Antivascular activity against human HUVEC cells assessed as inhibition of capillary tube formation incubated for 24 hrs by crystal violet staining based matrigel-transwell assay; type: functional, cell-based
[16] = MRT (0-t) in Sprague-Dawley rat at 2 mg/kg,iv measured upto 24 hrs by LC-MS/MS analysis; type: ADME, organism-based; conditions: in vivo
Tubulin (Homo sapiens) = Tubulin (Homo sapiens) (UniProt P68371+Q9H4B7+P0DPH7+P68366+Q13509+Q71U36+P04350+Q3ZCM7+P07437+P68363+Q9BQE3+Q6PEY2+Q13885+Q9BVA1+Q9BUF5); test: Inhibition of tubulin polymerization (unknown origin) at 10 uM measured for 20 mins in presence of GTP by spectrophotometry analysis relative to control; type: protein-complex assay
HeLa [17] = test: Induction of cell cycle arrest in human HeLa cells assessed as accumulation of cells at G0/G1 phase at 0.03 uM incubated for 24 hrs by propidium iodide staining based flow cytometry (reference value: 62.4 %); type: functional
HeLa [18] = test: Antiproliferative activity against human HeLa cells assessed as cell growth inhibition incubated for 48 hrs by MTT assay; type: functional, cell-based
HeLa [19] = test: Induction of apoptosis in human HeLa cells assessed as early apoptotic cells at 0.06 uM incubated for 24 hrs Annexin V-FITC/PI staining based flow cytometry analysis (Rvb= 1.85 %); type: functional
[20] = Volume of distribution at steady state in Sprague-Dawley rat at 10 mg/kg,po measured upto 24 hrs by LC-MS/MS analysis; type: ADME, organism-based; conditions: in vivo
[21] = Tmax in Sprague-Dawley rat at 10 mg/kg,po measured upto 24 hrs by LC-MS/MS analysis; type: ADME, organism-based; conditions: in vivo
[22] = Clearance in Sprague-Dawley rat at 2 mg/kg,iv measured upto 24 hrs by LC-MS/MS analysis; type: ADME, organism-based; conditions: in vivo
[23] = Oral bioavailability in Sprague-Dawley rat at 10 mg/kg measured upto 24 hrs by LC-MS/MS analysis; type: ADME, organism-based; conditions: in vivo
HeLa [24] = test: Induction of cell cycle arrest in human HeLa cells assessed as accumulation of cells at S phase at 0.06 uM incubated for 24 hrs by propidium iodide staining based flow cytometry (reference value: 20.22 %); type: functional
HeLa [25] = test: Induction of apoptosis in human HeLa cells assessed as necrotic cells at 0.03 uM incubated for 24 hrs Annexin V-FITC/PI staining based flow cytometry analysis (Rvb= 0.12 %); type: functional
MDA-MB-231 = test: Antiproliferative activity against human MDA-MB-231 cells assessed as cell growth inhibition incubated for 48 hrs by MTT assay; type: functional, cell-based; conditions: MDA-MB-231, 48 h
HeLa [26] = test: Induction of apoptosis in human HeLa cells assessed as late apoptotic cells at 0.12 uM incubated for 24 hrs Annexin V-FITC/PI staining based flow cytometry analysis (Rvb= 2.13 %); type: functional
A549 [27] = test: Antitumor activity against human A549 cells xenografted in Balb/c mouse assessed as tumor growth inhibition at 60 mg/kg,ip administrated for 7 days; type: functional; conditions: A549, 168 h, time 7 day, read-out: TGI
HeLa [28] = test: Induction of cell cycle arrest in human HeLa cells assessed as accumulation of cells at G2/M phase at 0.03 uM incubated for 24 hrs by propidium iodide staining based flow cytometry (reference value: 17.38 %); type: functional
HeLa [29] = test: Induction of cell cycle arrest in human HeLa cells assessed as accumulation of cells at S phase at 0.03 uM incubated for 24 hrs by propidium iodide staining based flow cytometry (reference value: 20.22 %); type: functional
HeLa [30] = test: Induction of apoptosis in human HeLa cells assessed as viable cells at 0.06 uM incubated for 24 hrs Annexin V-FITC/PI staining based flow cytometry analysis (Rvb= 95.9 %); type: functional; conditions: read-out: Activity
HeLa [31] = test: Induction of cell cycle arrest in human HeLa cells assessed as accumulation of cells at G0/G1 phase at 0.12 uM incubated for 24 hrs by propidium iodide staining based flow cytometry (reference value: 62.4 %); type: functional
[32] = Antiproliferative activity against human HEK293 cells assessed as cell growth inhibition incubated for 48 hrs by MTT assay; type: toxicity, cell-based
HeLa [33] = test: Induction of cell cycle arrest in human HeLa cells assessed as accumulation of cells at S phase at 0.12 uM incubated for 24 hrs by propidium iodide staining based flow cytometry (reference value: 20.22 %); type: functional
HeLa [34] = test: Induction of apoptosis in human HeLa cells assessed as necrotic cells at 0.06 uM incubated for 24 hrs Annexin V-FITC/PI staining based flow cytometry analysis (Rvb= 0.12 %); type: functional

Structure (SMILES): COc1cc(Cc2nnc3n2N=C(c2ccc(C)cc2)CS3)cc(OC)c1OC
- Activity (HeLa [1]): 24%
- AUC(0-t) at 24 h [2]: 122 ng·h/mL
- Activity (A549 [3]): Active
- Tmax [4]: 6 min
- half-life [5]: 5.3 h
- Cmax [6]: 28.4 ng/mL
- Activity [7]: Non-Toxic
- pIC50 (HT-29): 6.24
- MRT inf [8]: 7.9 h
- Activity (HeLa [9]): 7.44%
- AUC(0-t) at 24 h [10]: 307 ng·h/mL
- Vdss [11]: 91.5 L/kg
- MRT last at 24 h [12]: 6.4 h
- Activity (HeLa [13]): 4.9%
- MRT [14]: 1.8 h
- AUC(0-inf) [15]: 124 ng·h/mL
- Activity (HUVEC): Dose-Dependent Effect
- MRT last at 24 h [16]: 1.2 h
- inhibition (Tubulin (Homo sapiens)): 43%
- Activity (HeLa [17]): 52.76%
- pIC50 (HeLa [18]): 7.34
- Activity (HeLa [19]): 17.4%
- Vdss [20]: 1036.2 L/kg
- Tmax [21]: 4.3 h
- CL [22]: 118 mL/min/kg
- bioavailability [23]: 11.6%
- Activity (HeLa [24]): 28.35%
- Activity (HeLa [25]): 0.57%
- pIC50 (MDA-MB-231): 5.72
- Activity (HeLa [26]): 9.21%
- inhibition in vivo at 60 mg/kg (A549 [27]): 47.3%
- Activity (HeLa [28]): 27.37%
- Activity (HeLa [29]): 19.86%
- viability at 0.06 µM (HeLa [30]): 74.7%
- Activity (HeLa [31]): 0.51%
- IC50 at 48 h [32]: > 100 µM
- Activity (HeLa [33]): 8.4%
- Activity (HeLa [34]): 0.46%
